Measured values from US20120022122A1, “TREATMENT AND PREVENTION OF DELETERIOUS EFFECTS ASSOCIATED WITH ALCOHOL CONSUMPTION” (priority 2008, published 2012).
Like-named read-outs stand apart in the source and are kept apart here.

How the values were obtained:
[1] = tested on: alcohol-induced flush reaction; settings: for effects/effectiveness compared to no treatment or comparator: cimetidine 300 mg vs famotidine 10 mg vs no treatment; for effectiveness as preventative treatment against symptoms of alcohol-induced flush reaction (summary of the studies): famotidine at low dose, cimetidine at a higher dose; for undesired side-effects (drowsiness, sedation): famotidine 10 mg oral chewable tablet, with alcohol;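 for all read-outs here: human subjects with alcohol-induced flushing observed over social drinking occasions, with each subject also tested untreated as the control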
[2] = tested on: alcohol flush reaction and hangover; settings: previous studies with famotidine alone
[3] = cited from earlier work
[4] = Patient one, oral 45 min before drinking: cimetidine 300 mg (2 beverages, about 2 h) or famotidine 10 mg (2 oz tequila and 5 glasses beer, more than 6 h)
[5] = Patient three, oral 45 min before drinking: cimetidine 300 mg (2 beverages, about 3 h) or famotidine 10 mg (cocktails, about 4 h)
[6] = Subject 2, with alcohol, oral 45 min before drinking: cimetidine 300 mg or famotidine 10 mg
[7] = Subject 4, with alcohol, oral 45 min before drinking: cimetidine 300 mg or famotidine 10 mg
[8] = Subject 1, with alcohol, oral 45 min before drinking: loratidine 20 mg or famotidine 10 mg
[9] = Subject 3, with alcohol, oral 45 min before drinking: loratidine 20 mg or famotidine 10 mg
[10] = Subject 5, with alcohol, oral 45 min before drinking: loratidine 20 mg or famotidine 10 mg

## CN/C(=N/CCSCc1nc[nH]c1C)NC#N [Cimetidine]
[1]; Patient one
  effects/effectiveness compared to no treatment or comparator: slightly less aggressive
[1]; [4]
  flushing reaction after drinking alcohol: still experienced a facial flushing reaction, increased heart rate, as well as a headache
[1]; Patient three
  effects/effectiveness compared to no treatment or comparator: slightly less aggressive
[1]; [5]
  flushing reaction after drinking alcohol: still experienced a facial flushing reaction and an increased heart rate
[1]; [6]
  Heart rate: 97
  Temp (F.): 98.0 F.
[1]; [7]
  Heart rate: 87
  Temp (F.): 97.1 F.
[1]
  effectiveness as preventative treatment against symptoms of alcohol-induced flush reaction (summary of the studies): minimally effective

## NC(N)=Nc1nc(CSCCC(N)=NS(N)(=O)=O)cs1 [Famotidine]
[2]
  symptoms associated with hangover: did not appear to significantly reduce or eliminate symptoms associated with hangover
[3]; in ethanol
  solubility: practically insoluble
[3]; in glacial acetic acid
  solubility: freely soluble
[3]; in methanol
  solubility: slightly soluble
[3]; in water
  solubility: very slightly soluble
[1]; 10 mg of famotidine
  redness while imbibing in alcohol: significantly prevents redness
[1]; Patient five
  undesired side-effects (drowsiness, sedation): no undesired side-effects whatsoever
[1]; Patient five, famotidine 10 mg oral, continued drinking beyond six drinks and more than six hours
  period after which the protective effect (flushing blockade) dissipated: about five
[1]; Patient five, oral 45 min before drinking: loratadine 20 mg (1 beverage, 1 h) or famotidine 10 mg (5 beverages, about 5 h)
  flushing reaction after drinking alcohol: neither a facial flushing reaction nor any nasal congestion
[1]; Patient four
  undesired side-effects (drowsiness, sedation): no undesired side-effects whatsoever
[1]; Patient four, oral 45 min before drinking: loratadine 20 mg (3 beverages, 3-4 h) or famotidine 10 mg (multiple glasses of wine, 4 h)
  flushing reaction after drinking alcohol: no flushing reactions of the face or of the torso
[1]; Patient one
  effects/effectiveness compared to no treatment or comparator: much more effective than cimetidine
  undesired side-effects (drowsiness, sedation): no undesired side-effects whatsoever
[1]; [4]
  flushing reaction after drinking alcohol: no facial flushing reaction
[1]; Patient three
  effects/effectiveness compared to no treatment or comparator: much more effective than cimetidine or no treatment
  undesired side-effects (drowsiness, sedation): no undesired side-effects whatsoever
[1]; [5]
  flushing reaction after drinking alcohol: no flushing reactions of the face
[1]; Patient two
  undesired side-effects (drowsiness, sedation): no undesired side-effects whatsoever
[1]; Patient two, oral 45 min before drinking: loratadine 20 mg (3 beverages, 3-4 h) or famotidine 10 mg (2-3 glasses Vodka, several hours)
  flushing reaction after drinking alcohol: no flushing reactions, either of the face or of the torso
[1]; [8]
  Heart rate: 77
  Temp (F.): 97.3 F.
[1]; [6]
  Heart rate: 82
  Temp (F.): 98.2 F.
[1]; [9]
  Heart rate: 84
  Temp (F.): 97.4 F.
[1]; [7]
  Heart rate: 78
  Temp (F.): 97.1 F.
[1]; [10]
  Heart rate: 83
  Temp (F.): 97.3 F.
[1]
  effectiveness as preventative treatment against symptoms of alcohol-induced flush reaction (summary of the studies): highly effective
